In patent publication US7727955B2, “Pharmaceutical compositions based on NK2 antagonists for pediatric use” (Laboratori Guidotti S.p.A., priority 2004, dated 2010):
Values belong to the compound of their own block, whether it stands above or below them. Positions of bridges follow the written chain, without caps; N, C: chain ends. Non-standard residues stand in square brackets, D forms with d. Residues, ends and D or L forms follow the SMILES beside them. *: point of attachment. NH(β-GlcNAc) = CC(=O)N[C@@H]1[C@@H](O)[C@H](O)[C@@H](CO)O[C@H]1N*; Dap = NC[C@H](N)C(=O)O

Key:
NK2 receptors = molecular target: T1, NK2 receptors (Rattus norvegicus, UniProt P16610); assay: Intestinal transit of a carbon suspension in infant rats, increase induced by NK2 selective agonist β-Ala^8-NKA(4-10); type: in vivo; conditions: infant rats aged 7-10 days
T1 construct: prevent the increase in intestinal transit induced by the stimulation of NK2 receptors by the β-Ala^8-NKA(4-10) agonist; from tissue; host or cells: whole animal: infant rats aged 7-10 days (intestine, in vivo)
T1 sequence (P16610 1-390): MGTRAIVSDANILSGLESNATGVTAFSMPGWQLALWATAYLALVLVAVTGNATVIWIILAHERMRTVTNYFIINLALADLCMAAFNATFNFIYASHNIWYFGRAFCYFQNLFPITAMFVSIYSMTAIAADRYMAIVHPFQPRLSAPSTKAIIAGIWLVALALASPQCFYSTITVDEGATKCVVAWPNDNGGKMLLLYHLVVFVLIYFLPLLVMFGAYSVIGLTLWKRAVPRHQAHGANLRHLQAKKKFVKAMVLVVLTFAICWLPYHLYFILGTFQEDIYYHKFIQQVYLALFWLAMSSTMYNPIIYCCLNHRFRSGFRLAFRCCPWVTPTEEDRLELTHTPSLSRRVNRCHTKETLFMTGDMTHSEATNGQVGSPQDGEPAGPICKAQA
Protocol: (§1) The formulations of the present invention were tested for their biological activity in vivo on newborn rats in accordance with the following method:
(§2) a) The NK2 selective agonist β-Ala^8-NKA(4-10) was administered intraperitoneally to infant rats aged between 7 and 10 days, both males and females, at a dose of 15 μg/kg. A 10% suspension of carbon in 1% methylcellulose was then administered orally to the animals at a volume of 15 ml/kg. The same carbon-based suspension was administered to a control group which had not received the NK2 agonist.

infantile colics = conditions: clinical evidence from literature; cited from earlier work
clinical = conditions: human, in vivo, po
[1] = parameters: species or system rats; conditions: rat, in vivo, po
animal models of IBS = conditions: cited from earlier work
infant rats = assay: Basal intestinal transit in infant rats without agonist administration; type: in vivo; conditions: oral, nepadutant 2.5 mg/kg, measured at 6 hours after administration, no agonist
Protocol: as §1, §2

Compound: β-Ala^8-NKA(4-10) [reference compound]
increase in intestinal transit after agonist administration (NK2 receptors; 15 μg/kg i.p., versus control group without agonist): significant increase in intestinal transit

Compound: simethicone
effect versus placebo (infantile colics): no better than placebo

bioavailability (clinical): 1%
bioavailability in infant rats [1]: substantially enhanced
Compound: CC(=O)N[C@@H]1[C@@H](O)[C@H](O)[C@@H](CO)O[C@H]1NC(=O)C[C@@H]1NC(=O)[C@H](CC(C)C)NC(=O)[C@@H]2CNC(=O)C[C@H](NC1=O)C(=O)N[C@@H](Cc1c[nH]c3ccccc13)C(=O)N[C@@H](Cc1ccccc1)C(=O)N2 [Nepadutant, cyclo((Asn(β-D-2-deoxy-2-acetamido-Glc)-Asp-Trp-Phe-Dap-Leu)cyclo(2β-5β))] (cyclo(D(NH(β-GlcNAc))DWF[Dap]L); lactam 2-5)
prevention of the increase in intestinal transit induced by β-Ala^8-NKA(4-10) (NK2 receptors; oral, nepadutant 0.5 and 2.5 mg/kg at 2, 4 and 6 hours before agonist 15 μg/kg i.p.): able to prevent the increase in intestinal transit
correction of hyperalgesia (animal models of IBS): corrects hyperalgesia
effect on basal intestinal transit (infant rats): no effect on basal intestinal transit
